Assay results as given in ChEMBL document CHEMBL1201862, “PubChem BioAssay data set” (2004).
The source made the active and inactive calls.

Key:
[1] = THP-1 cell cytotoxicity, dose response, cytotoxicity control for Vif-APOBEC3G degradation inhibitor project, THP-1 cells (AID 1117359); assay type: functional; conditions: Human immunodeficiency virus 1, THP-1
Caspase-6 = target: T1, Caspase-6 (Homo sapiens, UniProt P55212); assay: human caspase-6 inhibitors, dose response, biochemical, VEID-R110 fluorescence, cherry-pick (AID 720632)
T1 sequence (P55212 whole entry): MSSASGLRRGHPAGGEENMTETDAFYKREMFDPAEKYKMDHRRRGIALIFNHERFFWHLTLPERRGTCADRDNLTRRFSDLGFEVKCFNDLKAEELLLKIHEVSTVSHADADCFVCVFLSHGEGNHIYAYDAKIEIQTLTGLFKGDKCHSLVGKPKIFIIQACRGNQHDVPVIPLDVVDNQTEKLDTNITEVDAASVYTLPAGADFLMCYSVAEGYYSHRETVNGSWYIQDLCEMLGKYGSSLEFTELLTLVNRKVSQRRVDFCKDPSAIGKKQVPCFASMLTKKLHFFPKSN

Leucine aminopeptidase = target: T2, Leucine aminopeptidase (Plasmodium falciparum 3D7, UniProt Q8IL11); assay: P. falciparum M17LAP inhibitors, primary screen, biochemical, fluorogenic H-Leu-NHMec substrate, 1536-well (AID 1619); assay type: functional
T2 sequence (Q8IL11 whole entry): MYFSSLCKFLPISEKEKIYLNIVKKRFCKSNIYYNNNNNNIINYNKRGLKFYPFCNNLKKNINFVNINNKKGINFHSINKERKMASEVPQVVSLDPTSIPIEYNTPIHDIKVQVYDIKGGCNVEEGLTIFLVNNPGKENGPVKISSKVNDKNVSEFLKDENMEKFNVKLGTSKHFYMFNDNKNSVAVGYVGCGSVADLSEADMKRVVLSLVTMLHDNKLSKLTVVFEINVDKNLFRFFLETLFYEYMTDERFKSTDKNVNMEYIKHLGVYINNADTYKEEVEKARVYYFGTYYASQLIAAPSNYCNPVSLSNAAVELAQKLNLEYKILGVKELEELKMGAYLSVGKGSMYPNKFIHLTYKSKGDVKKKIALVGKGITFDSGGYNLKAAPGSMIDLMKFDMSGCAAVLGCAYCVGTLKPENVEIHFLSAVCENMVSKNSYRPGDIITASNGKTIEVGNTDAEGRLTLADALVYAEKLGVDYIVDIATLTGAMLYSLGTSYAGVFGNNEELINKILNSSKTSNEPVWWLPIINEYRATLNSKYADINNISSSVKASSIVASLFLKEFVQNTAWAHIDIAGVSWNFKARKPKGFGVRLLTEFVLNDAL

[2] = growth suppression of beta-catenin-knockout colon cells, dose response, cell-based, HCT116, human colon tumor (AID 1045); assay type: functional;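 also: HCT116 colon tumor cells with beta catenin knocked out; cells exposed to compound for 60 hours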
Vero = assay: host cell cytotoxicity of antiviral hits, dose response, cytotoxicity control for West Nile virus antiviral project, secondary assay (AID 1650); assay type: functional; conditions: Chlorocebus sabaeus
[3] = growth suppression of PTEN-null colon cells, dose response, cell-based, HCT116 PTEN knockout (AID 1047); assay type: functional;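 also: HCT116 colon tumor cells with PTEN knocked out; cells exposed to compound for 60 hours before readout; potency for loss of cell viability measured by luminescence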
[4] = Luminescence Cell-Based Dose Response to Identify Activators of Luciferase Translation or Activity in H4-C Neuroglioblastoma Cells. [Related pubchem assays: 1829 (Project Summary), 1814 (Primary HTS)]; assay type: functional
[5] = Luminescence Cell-Based Dose Response to Identify Activators of 5'UTR Stem-Loop Driven Prion Protein mRNA Translation in H4-C Neuroglioblastoma Cells. [Related pubchem assays: 1829 (Project Summary), 1814 (Primary HTS)]; assay type: functional
[6] = Luminescence Cell-Based Dose Confirmation to Identify Activators of 5'UTR Stem-Loop Driven Alpha-Synuclein mRNA Translation in H4 Neuroglioblastoma Cells. [Related pubchem assays: 1829 (Project Summary), 1814 (Primary HTS)]; assay type: functional
[7] = Luminescence Cell-Based Dose Response HTS to Identify Activators of Luciferase Translation or Activity in H4 […] Cells. [Related pubchem assays: 1829 (Project Summary), 1814 (Primary HTS)]; assay type: functional
H4 = assay: Luminescence Cell-Based Dose Response HTS to Identify Activators of 5'UTR Stem-Loop Driven Prion Protein mRNA Translation in H4 Neuroglioblastoma Cells. [Related pubchem assays: 1829 (Project Summary), 1814 (Primary HTS)]; assay type: functional; conditions: Homo sapiens

CCNS(=O)(=O)c1ccc(-c2ccc(-n3cnnn3)cc2)cc1
CC50 [1]: > 40 µM (active)

CCN(CCCNC(=O)C1CCCN(S(=O)(=O)CC)C1)c1cccc(C)c1 (stereo not drawn)
CC50 [1]: > 40 µM (active)

O=C(O)CCC(=O)Nc1sc2c(c1C(=O)Nc1ccccc1)CCCCC2
AC50 (Caspase-6): 45 µM (active) | IC50 (Leucine aminopeptidase): 47 µM (active)

COc1cc(/C=C/C(=O)c2ccc(O)cc2)ccc1OCC#N
EC50 [2]: 1.93 µM (active) | CC50 (Vero): 31.9 µM (active) | EC50 [3]: 2.34 µM (active)

CCn1c(=N)n(CC(=O)c2ccc(Cl)c(Cl)c2)c2ccccc21
EC50 [4]: 0.474 µM (active) | EC50 [5]: 0.771 µM (active) | EC50 [6]: 1.18 µM (active) | CC50 (Vero): 15.5 µM (active) | EC50 [7]: < 0.1 µM (active) | EC50 (H4): > 120 µM (not active)
